Laboratory results taken from patent US9493466B2, “Treatment of cancer with TOR kinase inhibitors” (Signal Pharmaceuticals, LLC, priority 2011, dated 2016).

Legend:
DLBCL = experiment: Phase 1/2 study Part B: tumor response, DLBCL; assay type: in vivo, human; settings: 11 evaluable patients
Text: In Part B, subjects may start Compound 1 at the MTD and/or a lower dose level based on safety, PK and PD data from Part A. Approximately 150 subjects will be treated and evaluated for safety and preliminary antitumor activity after every two cycles of therapy. Tumor types include non-small cell lung cancer (NSCLC), glioblastoma multiforme (GBM), hepatocellular carcinoma (HCC), gastrointestinal neuroendocrine tumor of non-pancreatic origin (NET), diffuse large B-cell lymphoma (DLBCL), multiple myeloma (MM), and hormone receptor positive breast cancer (HRPBC). Up to 20 subjects will be enrolled in each tumor type.
Subjects will be evaluated for efficacy every 2 cycles through cycle 6 and every 3 cycles thereafter. The primary efficacy variable is response. Tumor assessments, including imaging (CT, MRI and/or PET) of the chest and abdomen and other sites as appropriate, will be performed during Screening. Subjects with brain lesions will also have brain scans at Screening and during follow-up tumor assessments. After Screening, tumor assessments (for all tumors except multiple myeloma) will be performed on completion of Cycles 2, 4 and 6 (i.e., on Cycles 3, 5 and 7/Day 1±7 days) and then every 3 months thereafter (e.g., Cycle 10 and 13/Day 1±7 days). Tumor assessment (for multiple myeloma and only NHL/DLBCL with known or suspected marrow involvement) (bone marrow aspiration and biopsy, with PD biomarker analysis, cytogenetic analysis if abnormally present at Screening) will be performed on completion of Cycles 4, 8, 12 and 16 only (i.e., on Cycles 5, 9, 13 and 17/Day 1±7 days). Cytogenetics need not be repeated if normal at Screening. […] Subjects will be evaluated for tumor response on completion of Cycle 2, 4, 6, and so on. […]
For Part B, efficacy variables to be analyzed include tumor response at the end of treatment, the proportion of subject alive and progression-free, and duration of response. […]

[1] = tested on: TORC1 (pS6, p4EBP1) and TORC2 (pAkt) pathways; experiment: TOR pathway biomarker measurements in whole blood; assay type: in vivo, human
Text: Parameters to be explored include mTOR biomarker inhibition in blood and tumor, histopathologic response, correlations with pharmacogenomic findings and percentage of inhibition of pAKT (Ser473), phospho-S6RP (Ser235/236 and/or Ser240/244), phospho-4EB-P1 (Thr37/46), and/or other relevant biomarkers in peripheral blood samples and tumor, adverse events and clinical outcome. The pharmacodynamic (PD) measurements are incorporated in this study to evaluate target inhibition of mTORC1 and mTORC2 pathways, the consequences of such inhibition, and PK/PD relationships. In Parts A and B, biomarker analysis will involve measuring pAKT (mTORC2) in protein lysates derived from isolated platelets. Levels of p4EB-P1 and pS6RP (mTORC1), and pAKT (mTORC2), will be measured by flow cytometry using whole blood samples. Likewise, in Parts A and B, pAKT, p4EB-P1, p56, Ki67 and/or other relevant markers to assess Compound 1 activity will be measured in serial tumor biopsies from subjects with accessible disease when possible. The changes of each biomarker will be determined by comparing the levels of biomarkers in pre- and post-treatment samples and, where possible, correlate these with drug exposure in blood, and tissue if available, and tumor response over time. Full details of all statistical analyses and modeling for these outcomes will be described in the statistical analysis plan and final study report.
TOR Pathway Biomarker Measurements in Whole Blood. Blood samples received from clinical sites were aliquoted into a 96-deepwell plate and rested for 1 hour at 37° C. The samples were stimulated with anti-IgD and LPS for 15 minutes at 37° C. The red blood cells were lysed and the white blood cells were fixed with BD Lyse/Fix Buffer at a ratio of 15:1 buffer to blood for 10 minutes at 37° C. The plates were centrifuged, aspirated, and 1 mL of ice-cold methanol was added to the wells containing fixed white blood cells to permeabilize the cells for intracellular staining. The plates were stored overnight at −80° C. The plates were thawed, centrifuged, aspirated and washed twice with PBS+0.5% BSA. The cells were stained with antibodies specific for the surface markers CD3, CD14, and CD19, and for mTOR pathway markers, including pS6 (S235/236), p4EBP1 (T37/46), and pAKT (S473). The cells were washed twice with PBS and fixed with 1.6% PFA.
Sample analysis: The samples were analyzed on an 8 color cytometer. Control wells of 8-peak rainbow beads (Spherotech Libertyville, Ill.) were acquired at multiple points during sample acquisition. The median fluorescence intensity (MFI) was computed for each marker from the fluorescence intensity levels in T cells, B cells, and monocytes. The MFI were normalized using the 8-peak rainbow beads and presented as ERF (Equivalent number of Reference Fluorophores). ERFs were calculated from the MFIs using a linear regression transformation carried out on a log-log scale using the rainbow calibration particles with 8 intensities on 8 colors. The percent change from baseline for pS6, p4EBP1, and pAKT in stimulated and non-stimulated T cells, B cells, and monocytes was determined for each patient. The baseline value was an average of two visits (screening and cycle 1/day −1 at 0 hr pre-dose) when available.

Question: Which results are given for `CO[C@H]1CC[C@H](N2C(=O)CNc3ncc(-c4ccc(C(C)(C)O)nc4)nc32)CC1` [Compound 1, 7-(6-(2-hydroxypropan-2-yl)pyridin-3-yl)-1-((1r,4r)-4-methoxycyclohexyl)-3,4-dihydropyrazino-[2,3-b]pyrazin-2(1H)-one]?
Answer: best target lesions responses (reduction) (DLBCL): up to 75%; patients meeting Partial Response (RECIST 1.1) (DLBCL): 2 patients; patients meeting at least Stable Disease (RECIST 1.1) (DLBCL): 1 patient; inhibition of TORC1 and TORC2 biomarkers ([1]; Part A, doses of 30 mg and higher, up to 5 hours post first dose, stimulated blood): Consistent inhibition; TORC1 and TORC2 inhibition ([1]; Part B, DLBCL patients): observed in the first patient analyzed; TORC1 and TORC2 inhibition ([1]; Part B, GBM patients): observed in majority of patients; TORC1 and TORC2 inhibition ([1]; Part B, HCC patients): observed in majority of patients; TORC1 and TORC2 inhibition ([1]; Part B, MM patients): observed in 2 patients; TORC1 and TORC2 inhibition ([1]; Part B, NSCLC patients): observed in majority of patients; TORC1 and TORC2 inhibition (pAkt, p4EPB1) ([1]; Part B, all cohorts, blood, 1.5 h after dosing, Cycle 1 Day 1 and Day 15, P <0.001): inhibition was observed
